# Reference: patent US20160168140A1, “HETEROCYCLIC COMPOUNDS AS ANTIBIOTIC POTENTIATORS” (priority 2014, published 2016)
# Key:
# [1] = tested on: Acinetobacter baumannii (Ab23); test: MIC shift assay of antibiotics (broth microdilution); type: cell-based; settings: for Colistin MIC Shift: A. baumannii (MDR Ab), compd. concentration 4.0 μM, colistin MIC 0.5-1.0 μg/mL; for colistin MIC shift, Ab23 at (compd concentration): fold shift of colistin MIC, nc = no changeover or no shift
# In short: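 Broth microdilution MIC shift assay against Acinetobacter baumannii. Overnight cultures in cation-adjusted Mueller Hinton broth at 37° C. were sub-cultured 1:200, grown to OD600=0.5 to 0.8, diluted to OD600=0.01, and added (50 μL) to wells holding 50 μL of 2× antibiotic stocks for a starting OD600 of 0.005. After 18 to 20 h at 37° C. with shaking, OD600 was read to obtain MICs.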
# [2] = tested on: E. coli; test: as above; type: cell-based; settings: E. coli (SCR1); compd. concentration 4.0 μM; colistin MIC 0.5-1.0 μg/mL
# Protocol: Minimum inhibitory concentration (MIC) shift assays were performed to determine if the test compounds could alter the MIC of existing antibacterial drugs (e.g., ciprofloxacin and colistin) for E. coli, Acinetobacter baumannii, Klebsiella pneumoniae, Pseudomonas aeruginosa, and Enterobacter cloacae. The MIC shift assay is based on the standard broth microdilution MIC determination protocol of Wiegand et al, Nat Protoc. 3(2):163-75 (2008), with slight modifications that allow for the screening of up to seven test compounds in a single plate.
# On the day before an assay, bacteria were grown overnight in cation-adjusted Mueller Hinton broth (CAMHB; Teknova, Hollister, Calif.) at 37° C. in an orbital shaker and sub-cultured at a 1:200 dilution the following morning. The cells were grown to OD600=0.5 to 0.8 and then diluted to OD600=0.01. From a serial dilution of each antibiotic at (50 μL of 2× concentrated stock solutions) several concentrations were added to the wells of a sterile, transparent round-bottom 96-well plate (Phenix Research Products, Candler, N.C.), and diluted cells (50 μL) were added to the plates for a starting OD600 of 0.005. Then, a test compound (2.5 μL) was added to each well to give a final concentration of 4 or 10 μM. A row of wells lacking test compound but containing the antibiotic was used to determine the MIC of that antibiotic alone. A column of wells lacking both antibiotic and test compound served as a growth control, and an additional column containing only CAMHB was included as a sterile blank control.
# The plates were incubated for 18 to 20 h at 37° C. in an orbital shaker, and the cell density (OD600) was determined the following day in a microplate reader (PolarStar Optima, BMG Labtech). The MIC shift was determined by comparing the MIC of the antibiotic alone to the MIC of the antibiotic plus test compound.
# [3] = tested on: panel of Gram-negative bacteria with different colistin susceptibilities; test: Fractional inhibitory concentration index (FICI) checkerboard assay with colistin; type: cell-based; settings: for FICI Values of Colistin and Potentiator in Resistant Bacteria: FICI values of ≦0.5 indicate synergy
# Protocol: The fractional inhibitory concentration index (FICI) was determined in combination with colistin using the broth microdilution susceptibility test method as described by the CLSI (Methods for Dilution Antimicrobial Susceptibility Tests for Bacteria That Grow Aerobically; Approved Standard-Ninth Edition. 2012. CLSI document M07-A9. CLIS, 940 West Valley Road, Suite 1400, Wayne, Pa. 19087-1898 USA). This checkerboard assay was set up with decreasing concentrations of colistin across the plate from left to right and decreasing concentrations of potentiator from top to bottom. The FICI values were then calculated using the methods of Lorian et al. (Antibiotics in Laboratory Medicine—Fifth Edition. 2005. Lippincott, Williams, & Wilkins, Philadelphia, Pa.). A panel of Gram-negative bacteria with different colistin susceptibilities were tested.
# Each of the tested compounds synergized with colistin in the three species of colistin-resistant bacteria tested.
# [4] = tested on: Ab23; test: Time-kill assay with colistin and potentiator; type: cell-based, Acinetobacter baumannii; design: time-kill: concentration of potentiator required for effect: unit not given here; settings: for time-kill: effect on Ab23 cells in the absence of colistin: compound alone (compound III at 10 μM), FIGS. 2-4; for time-kill: effect in the presence of colistin: compound plus colistin, Ab23, FIGS. 2-4
# Protocol: Colistin and potentiator were diluted to 1000× final concentrations in water and DMSO, respectively. Then, 3 μl of the appropriate dilutions were added to culture tubes. An overnight culture of Ab23 was diluted to 10^6 CFU/ml, and 3 mL of cells were added to the tubes. The cultures were incubated at 37° C. in an orbital shaker. An aliquot of the starting inoculum was serially diluted in CAMHB and spread on LB agar plates for CFU determination. At 2, 4, 8, and 24 hours, aliquots were removed from each of the culture tubes, diluted, and spread LB agar plates. The plates were incubated overnight at 37° C. The following day, the number of CFUs on each plate was counted, and the number of bacterial in each culture condition was calculated. Colistin (“C”) was tested at 2 and 8 µg/mL. The select compounds (“P”) were tested at 2 and 10 µg/mL. The dotted line indicates the limit of detection.
# [5] = colistin-resistant A. baumannii
# [6] = colistin-resistant K. pneumoniae
# [7] = colistin-resistant P. aeruginosa
Colistin MIC Shift [1],Colistin MIC Shift [2],"colistin MIC shift, Ab23 at (compd concentration) ([1]; compound concentration 2 μM)",Compound,also measured
8x,8x,,CCN(CC)CCCC(C)Nc1nc(-c2cc(-c3ccccc3)cc(C(F)(F)F)c2)nc2c(C)cccc12 (stereo not shown) [compound 492],"colistin MIC shift, Ab23 at (compd concentration) ([1]; compound concentration 4 μM): 32x"
8x,8x,8-16x,Cc1cccc2c(NCCCN(C)C)nc(-c3cc(Br)cc(C(F)(F)F)c3)nc12 [compound 353],
8x,8x,8-16x,CNCCCN(C)c1nc(-c2cc(Br)cc(C(F)(F)F)c2)nc2c(C)cccc12 [compound 342],
4x,16x,8-16x,Cc1cccc2c(NCCN(C)C)nc(-c3cc(Br)cc(C(F)(F)F)c3)nc12 [compound 345],
4x,8x,,Cc1cccc2c(NCCCN(C)C)nc(-c3cc(Cl)cc(C(F)(F)F)c3)nc12 [compound 506],"colistin MIC shift, Ab23 at (compd concentration) ([1]; compound concentration 4 μM): 16x"
4x,4x,8-16x,CN(C)CCCNc1nc(-c2cc(Br)cc(C(F)(F)F)c2)nc2c(Br)cccc12 [compound 338],
8x,16x,,CNCCCN(C)c1nc(-c2cccc(-c3cc(C(F)(F)F)ccc3F)c2)nc2c(C)cccc12 [compound 487],"colistin MIC shift, Ab23 at (compd concentration) ([1]; compound concentration 4 μM): 32x"
8x,8x,8-16x,Cc1cccc2c(NCCCN(C)C)nc(-c3cc(C(F)(F)F)cc(C(F)(F)F)c3)nc12 [compound 339],

# Second part, the compound before the results:
Compound,Colistin MIC Shift [1],Colistin MIC Shift [2],"colistin MIC shift, Ab23 at (compd concentration) ([1]; compound concentration 2 μM)",also measured
CN(C)CCCNc1nc(-c2cc(Br)cc(C(F)(F)F)c2)nc2c(C(F)(F)F)cccc12 [compound 505],4x,8x,,"colistin MIC shift, Ab23 at (compd concentration) ([1]; compound concentration 4 μM): 32x"
Cc1cccc2c(NCCCN3CCNCC3)nc(-c3cc(Br)cc(C(F)(F)F)c3)nc12 [compound 348],8x,16x,8-16x,
CN(C)CCCNc1nc(-c2cc(Br)cc(C(F)(F)F)c2)nc2c(Cl)cccc12 [compound 337],4x,4x,8-16x,
NCC(=O)n1cc(-c2ccc(Cl)c(Cl)c2)c2cc(Cl)ccc21 [compound 360],4x,4x,16x,
CC(N)C(=O)n1cc(-c2ccc(Cl)c(Cl)c2)c2cc(Cl)ccc21 (stereo not shown) [compound 361],4x,4x,16x,
CN(C)CCCNc1nc(/C=C/c2ccc(Cl)c(Cl)c2)nc2c(C(F)(F)F)cccc12 [compound III],,,,"MIC Shift of Colistin and Potentiator in Resistant Bacteria [3, 5]: 133 x; FICI Values of Colistin and Potentiator in Resistant Bacteria [3, 5]: 0.21; MIC Shift of Colistin and Potentiator in Resistant Bacteria [3, 6]: 533 x; FICI Values of Colistin and Potentiator in Resistant Bacteria [3, 6]: 0.17; MIC Shift of Colistin and Potentiator in Resistant Bacteria [3, 7]: 33 x; FICI Values of Colistin and Potentiator in Resistant Bacteria [3, 7]: 0.19; time-kill: effect on Ab23 cells in the absence of colistin [4]: reduced Ab23 in two hours, although the effect was not sustained; time-kill: effect in the presence of colistin [4]: potent synergists of colistin"
FC(F)(F)c1ccc2c(-c3ccc(Cl)c(Cl)c3)n[nH]c2c1 [compound II],,,,"MIC Shift of Colistin and Potentiator in Resistant Bacteria [3, 5]: 267 x; FICI Values of Colistin and Potentiator in Resistant Bacteria [3, 5]: 0.15; MIC Shift of Colistin and Potentiator in Resistant Bacteria [3, 6]: 32 x; FICI Values of Colistin and Potentiator in Resistant Bacteria [3, 6]: 0.39; MIC Shift of Colistin and Potentiator in Resistant Bacteria [3, 7]: 16 x; FICI Values of Colistin and Potentiator in Resistant Bacteria [3, 7]: 0.26; time-kill: effect on Ab23 cells in the absence of colistin [4]: had no effect on the cells; time-kill: effect in the presence of colistin [4]: potent synergists of colistin"
Clc1ccc(/C=C/c2c[nH]c3ccc(Br)cc23)cc1Cl [compound I],,,,"MIC Shift of Colistin and Potentiator in Resistant Bacteria [3, 5]: 133 x; FICI Values of Colistin and Potentiator in Resistant Bacteria [3, 5]: 0.25; MIC Shift of Colistin and Potentiator in Resistant Bacteria [3, 6]: 64 x; FICI Values of Colistin and Potentiator in Resistant Bacteria [3, 6]: 0.30; MIC Shift of Colistin and Potentiator in Resistant Bacteria [3, 7]: 16 x; FICI Values of Colistin and Potentiator in Resistant Bacteria [3, 7]: 0.26; time-kill: effect on Ab23 cells in the absence of colistin [4]: had no effect on the cells; time-kill: effect in the presence of colistin [4]: potent synergists of colistin; time-kill: concentration of potentiator required for effect ([4]; in combination with colistin, Ab23, FIG. 2): 2"
